# Measurements reported in PubChem BioAssay AID342 (DTP/NCI, 2004).
# “And” between values parts separate entries of the source, which are not always exact repeats. Equal entries are not always repeated.
# System: Swiss mice, Sarcoma 180 sc, mean tumor weight T/C
# Assay: NCI In Vivo Anticancer Drug Screen. Data for tumor model Sarcoma 180 (subcutaneous) in Swiss mice
# Details: endpoint: mean tumor weight, higher = larger tumour
# Outline: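 Tumor-bearing mice, transplantable tumor; readout survival or tumor size; result = T/C, treated vs vehicle control.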
# [1] = dose: 2.5 mg/kg/injection, schedule: Q01DX007 (sc), vehicle: steriod suspending solution
# [2] = dose: 10.0 mg/kg/injection, schedule: Q01DX007 (sc), vehicle: steriod suspending solution
structure (smiles),measurement,setting,value
COc1ccc2c(c1)CC[C@@H]1[C@@H]2CC[C@]2(C)C[C@@](C)(O)C[C@@H]12,T/C,"dose: 0.25 mg/kg/injection, schedule: Q#A X014 (sc), vehicle: steriod suspending solution",100 % of control
same,T/C,"dose: 1.25 mg/kg/injection, schedule: Q#A X014 (sc), vehicle: steriod suspending solution",84 % of control
same,T/C,"dose: 2.5 mg/kg/injection, schedule: Q#A X014 (ip), vehicle: methylcellulose (MC)",94 % of control
same,T/C,"dose: 10.0 mg/kg/injection, schedule: Q#A X014 (ip), vehicle: methylcellulose (MC)",98 % of control
CCCCCCCCCCCCCCCCCCNC(=S)N/N=C/c1ccc(Cl)cc1Cl,T/C,"dose: 65.0 mg/kg/injection, schedule: Q#A X014 (ip), vehicle: methylcellulose (MC)",35 % of control and 53 % of control
C[C@]12CCc3c(ccc4cc(O)ccc34)[C@@H]1C[C@H](O)[C@@H]2O,T/C,[1],90 % of control
same,T/C,[2],95 % of control
C=CC1CN2CCC1CC2C(O)c1ccnc2ccc(OC)cc12 (configuration not stated),T/C,"dose: 30.16 mg/kg/injection, schedule: Q01DX007 (ip), vehicle: other",96 % of control
same,T/C,"dose: 31.25 mg/kg/injection, schedule: Q#A X014 (ip), vehicle: carboxymethylcellulose (CMC)",101 % of control
same,T/C,"dose: 47.12 mg/kg/injection, schedule: Q01DX007 (ip), vehicle: carboxymethylcellulose (CMC)",92 % of control
same,T/C,"dose: 56.25 mg/kg/injection, schedule: Q01DX007 (ip), vehicle: carboxymethylcellulose (CMC)",89 % of control
same,T/C,"dose: 60.32 mg/kg/injection, schedule: Q01DX007 (ip), vehicle: other",75 % of control
same,T/C,"dose: 62.5 mg/kg/injection, schedule: Q#A X014 (ip), vehicle: carboxymethylcellulose (CMC)",120 % of control
same,T/C,"dose: 94.25 mg/kg/injection, schedule: Q01DX007 (ip), vehicle: carboxymethylcellulose (CMC)",93 % of control
same,T/C,"dose: 112.5 mg/kg/injection, schedule: Q01DX007 (ip), vehicle: carboxymethylcellulose (CMC)",80 % of control
same,T/C,"dose: 120.65 mg/kg/injection, schedule: Q01DX007 (ip), vehicle: other",99 % of control
same,T/C,"dose: 125.0 mg/kg/injection, schedule: Q#A X014 (ip), vehicle: carboxymethylcellulose (CMC)",121 % of control
same,T/C,"dose: 188.5 mg/kg/injection, schedule: Q01DX007 (ip), vehicle: carboxymethylcellulose (CMC)",78 % of control
same,T/C,"dose: 225.0 mg/kg/injection, schedule: Q01DX007 (ip), vehicle: carboxymethylcellulose (CMC)",118 % of control
same,T/C,"dose: 241.3 mg/kg/injection, schedule: Q01DX007 (ip), vehicle: other",97 % of control
same,T/C,"dose: 250.0 mg/kg/injection, schedule: Q#A X014 (ip), vehicle: carboxymethylcellulose (CMC)",50 % of control
C[C@]12CCC(=O)C[C@H]1CC[C@@H]1[C@@H]2C(=O)C[C@@]2(C)[C@H]1CC[C@]2(C)O,T/C,"dose: 5.0 mg/kg/injection, schedule: Q#A X014 (sc), vehicle: steriod suspending solution",72 % of control
same,T/C,"dose: 50.0 mg/kg/injection, schedule: Q#A X014 (sc), vehicle: steriod suspending solution",78 % of control
same,T/C,"dose: 150.0 mg/kg/injection, schedule: Q#A X014 (sc), vehicle: steriod suspending solution",110 % of control
O=P(Oc1ccccc1)(OP(=O)(Oc1ccccc1)N(CCCl)CCCl)N(CCCl)CCCl (configuration not stated),T/C,"dose: 12.5 mg/kg/injection, schedule: Q#A X014 (ip), vehicle: other",85 % of control
same,T/C,"dose: 25.0 mg/kg/injection, schedule: Q#A X014 (ip), vehicle: other",76 % of control
same,T/C,"dose: 50.0 mg/kg/injection, schedule: Q#A X014 (ip), vehicle: other",112 % of control
CCC(=O)O[C@H]1CC[C@H]2[C@@H]3CCC4=CC(=O)CC[C@]4(C)[C@H]3[C@@H](O)C[C@]12C,T/C,"dose: 12.5 mg/kg/injection, schedule: Q#A X014 (sc), vehicle: steriod suspending solution",96 % of control
same,T/C,"dose: 125.0 mg/kg/injection, schedule: Q#A X014 (sc), vehicle: steriod suspending solution",88 % of control
same,T/C,"dose: 250.0 mg/kg/injection, schedule: Q#A X014 (sc), vehicle: steriod suspending solution",94 % of control
CCCCN(C)/N=N/c1nc[nH]c1C(N)=O,T/C,"dose: 31.0 mg/kg/injection, schedule: Q01DX007 (ip), vehicle: carboxymethylcellulose (CMC)",44 % of control
same,T/C,"dose: 62.0 mg/kg/injection, schedule: Q01DX007 (ip), vehicle: carboxymethylcellulose (CMC)",31 % of control
same,T/C,"dose: 125.0 mg/kg/injection, schedule: Q01DX007 (ip), vehicle: carboxymethylcellulose (CMC)",14 % of control
CN1CCC=C(C(=O)O)C1,T/C,"dose: 10.0 mg/kg/injection, schedule: Q01DX007 (ip), vehicle: water",78 % of control
same,T/C,"dose: 50.0 mg/kg/injection, schedule: Q01DX007 (ip), vehicle: water",75 % of control
same,T/C,"dose: 100.0 mg/kg/injection, schedule: Q01DX007 (ip), vehicle: water",83 % of control
O=C(N/N=C/C=C/c1ccccc1)[C@H](O)[C@@H](O)C(=O)N/N=C/C=C/c1ccccc1,T/C,"dose: 111.0 mg/kg/injection, schedule: Q#A X014 (ip), vehicle: saline",57 % of control
same,T/C,"dose: 166.5 mg/kg/injection, schedule: Q#A X014 (ip), vehicle: saline",40 % of control
same,T/C,"dose: 250.0 mg/kg/injection, schedule: Q#A X014 (ip), vehicle: saline",57 % of control
CC(=O)OCC(=O)[C@@]1(O)CC[C@H]2[C@@H]3C[C@H](F)C4=CC(=O)CC[C@]4(C)[C@H]3C(=O)C[C@@]21C,T/C,[1],60 % of control
same,T/C,"dose: 5.0 mg/kg/injection, schedule: Q01DX007 (sc), vehicle: steriod suspending solution",49 % of control
same,T/C,[2],51 % of control
same,T/C,"dose: 19.0 mg/kg/injection, schedule: Q01DX007 (sc), vehicle: steriod suspending solution",41 % of control
same,T/C,"dose: 29.0 mg/kg/injection, schedule: Q01DX007 (sc), vehicle: steriod suspending solution",31 % of control
c1ccc2nc3ccccc3c-2cc1,T/C,"dose: 62.5 mg/kg/injection, schedule: Q01DX007 (ip), vehicle: saline",118 % of control
same,T/C,"dose: 125.0 mg/kg/injection, schedule: Q01DX007 (ip), vehicle: saline",106 % of control
same,T/C,"dose: 250.0 mg/kg/injection, schedule: Q01DX007 (ip), vehicle: saline",113 % of control
same,T/C,"dose: 750.0 mg/kg/injection, schedule: Q01DX007 (ip), vehicle: saline",85 % of control
same,T/C,"dose: 1000.0 mg/kg/injection, schedule: Q01DX007 (ip), vehicle: saline",68 % of control
CC[C@](C)(O)C(=O)O[C@H]1C(=O)O[C@@H]2C[C@H]3C(C)=C[C@H](O)[C@@H](O)[C@]3(C)[C@H]3[C@@]4(O)OC[C@]32[C@@H]1[C@@H](C)[C@H]4O,T/C,"dose: 0.5 mg/kg/injection, schedule: Q01DX007 (sc), vehicle: olive oil, sesame oil, peanut oil",60 % of control
same,T/C,"dose: 1.0 mg/kg/injection, schedule: Q01DX007 (sc), vehicle: olive oil, sesame oil, peanut oil",64 % of control
same,T/C,"dose: 2.0 mg/kg/injection, schedule: Q01DX007 (sc), vehicle: olive oil, sesame oil, peanut oil",67 % of control
same,T/C,"dose: 4.0 mg/kg/injection, schedule: Q01DX007 (sc), vehicle: olive oil, sesame oil, peanut oil",77 % of control and 80 % of control
same,T/C,"dose: 6.0 mg/kg/injection, schedule: Q01DX007 (sc), vehicle: olive oil, sesame oil, peanut oil",97 % of control
same,T/C,"dose: 9.0 mg/kg/injection, schedule: Q01DX007 (sc), vehicle: olive oil, sesame oil, peanut oil",93 % of control
CNCc1ccccc1,T/C,"dose: 146.5 mg/kg/injection, schedule: Q01DX007 (ip), vehicle: carboxymethylcellulose (CMC)",91 % of control
CC(=O)OCC(=O)[C@@]1(O)CC[C@H]2[C@@H]3CCC4=CC(=O)C=C[C@]4(C)[C@@]3(F)[C@@H](O)C[C@@]21C,T/C,"dose: 20.0 mg/kg/injection, schedule: Q#A X014 (sc), vehicle: steriod suspending solution",32 % of control
same,T/C,"dose: 30.0 mg/kg/injection, schedule: Q#A X014 (sc), vehicle: steriod suspending solution",32 % of control
same,T/C,"dose: 45.0 mg/kg/injection, schedule: Q#A X014 (sc), vehicle: steriod suspending solution",30 % of control
same,T/C,"dose: 67.5 mg/kg/injection, schedule: Q#A X014 (sc), vehicle: steriod suspending solution",24 % of control and 32 % of control
COC1=C(N)C(=O)c2nc(-c3nc(C(=O)O)c(C)c(-c4ccc(OC)c(OC)c4O)c3N)ccc2C1=O,T/C,"dose: 0.02 mg/kg/injection, schedule: Q01DX007 (ip), vehicle: water",66 % of control
same,T/C,"dose: 0.05 mg/kg/injection, schedule: Q01DX007 (ip), vehicle: water",70 % of control
same,T/C,"dose: 0.05 mg/kg/injection, schedule: Q#A X014 (ip), vehicle: alkali diluted with CMC",61 % of control
same,T/C,"dose: 0.09 mg/kg/injection, schedule: Q01DX007 (ip), vehicle: other",37 % of control
same,T/C,"dose: 0.1 mg/kg/injection, schedule: Q01DX007 (ip), vehicle: water",53 % of control and 54 % of control
same,T/C,"dose: 0.1 mg/kg/injection, schedule: Q#A X014 (ip), vehicle: alkali diluted with CMC",52 % of control
same,T/C,"dose: 0.13 mg/kg/injection, schedule: Q01DX007 (ip), vehicle: other",83 % of control
same,T/C,"dose: 0.2 mg/kg/injection, schedule: Q01DX007 (ip), vehicle: other",73 % of control
same,T/C,"dose: 0.2 mg/kg/injection, schedule: Q01DX007 (ip), vehicle: water",48 % of control
same,T/C,"dose: 0.2 mg/kg/injection, schedule: Q#A X014 (ip), vehicle: alkali diluted with CMC",65 % of control
same,T/C,"dose: 0.25 mg/kg/injection, schedule: Q01DX007 (ip), vehicle: water",27 % of control
same,T/C,"dose: 0.3 mg/kg/injection, schedule: Q01DX007 (ip), vehicle: other",54 % of control
